This note sets out measurements from US12053473B2, “Benzylamino substituted quinazolines and derivatives as SOS1 inhibitors” (priority 2016, dated 2024).

The structures appear in SMILES notation. pIC50: −log10 of the molar value.

The pIC50 is the IC50 on a negative log10 scale, so that one unit is a factor of ten.

The first assay concerns the target SOS1 and KRAS G12D (protein-protein interaction) (Homo sapiens, UniProt Q07889). Put plainly: KRAS::SOS1 AlphaScreen binding assay.
Conditions: not given
The method, then:
KRAS::SOS1 AlphaScreen Binding Assay
Low IC50 values are indicative of high potency of the SOS1 inhibitor compound in this assay setting:
10 nM (final assay concentration) KRAS G12D, 10 μM (final assay concentration) GDP and 5 nM (final assay concentration) GST-SOS1 are mixed in assay buffer prior to use and kept at room temperature.
AlphaLSA Glutathione Acceptor Beads and AlphaScreen Streptavidin Donor Beads are mixed in assay buffer at a concentration of 10 μg/mL (final assay concentration) each prior to use and kept at room temperature.
Compounds are diluted to a final start concentration of 100 μM and are tested in duplicate. […] For compound a start concentration of 100 μM, 150 nL of compound solution is transferred per well in 11 concentrations in duplicate with serial 1:5 dilutions.
The assay is run using a fully automated robotic system in a darkened room below 100 Lux. 10 μL of KRAS::SOS1 GDP mix is added into columns 1-24 to the 150 nL of compound solution (final dilution in the assay 1:100, final DMSO concentration 1%).
After a 30 minute incubation time 5 μL of bead mix is added into columns 1-23. Plates are kept at room temperature in a darkened incubator. After a further 60 minute incubation, the signal is measured using a PerkinElmer Envision HTS Multilabel Reader using the AlphaScreen specifications from PerkinElmer. Each plate contains the following controls: • diluted DMSO+KRAS::SOS1 GDP mix+bead mix • diluted DMSO+KRAS::SOS1 GDP mix Result Calculation:
IC50 values are calculated and analyzed using a 4 parametric logistic model.
On the technique in general: In Alpha technology, singlet oxygen from a donor bead excites a nearby acceptor bead.
For the molecule `COCCN1CCN(C(=O)[C@H]2CC[C@@H](c3cc4c(N[C@H](C)c5cc(N)cc(C(F)(F)F)c5F)nc(C)nc4cc3OC)CC2)CC1` [I-247], the pIC50 is 7.74.

Molecule `COc1cc2nc(C)nc(N[C@H](C)c3cccc(C(F)(F)F)c3)c2cc1[C@]1(O)CC[C@@H](O)CC1` [I-57] had a pIC50 of 8.00.

For the molecule `Cc1nc(N[C@H](C)c2cccc(C(F)(F)F)c2F)c2cc([C@]3(O)CC[C@@H](O)CC3)ccc2n1` [I-61], the pIC50 is 8.10.

The same assay, now with this note: assay buffer with 100 μM EDTA (values marked with an asterisk); read-out: IC50 (SOS1).
For `Cc1nc(N[C@H](C)c2cccc(C(F)(F)F)c2)c2cc(-c3cnn(C4CCNCC4)c3)ccc2n1` [I-168], the pIC50 was 7.32.

`Cc1cccc([C@@H](C)Nc2nc(C)nc3ccc(C4CC[S+]([O-])CC4)cc23)c1` (some centres unmarked) [I-160]: the pIC50 is 7.66.

For `Cc1nc(N[C@H](C)c2cccc(C(F)(F)F)c2)c2cc(C3=CCNCC3)ccc2n1` [I-171], the pIC50 is 7.74.

For `Cc1nc(N[C@H](C)c2cccc(C(F)(F)F)c2)c2cc(C3CCNCC3)ccc2n1` [I-182], the pIC50 is 7.66.

The same assay, now with this note: assay buffer without EDTA (values not marked with an asterisk); read-out: IC50 (SOS1).
In the case of `COc1cc2nc(C)nc(N[C@H](C)c3cccc(C(F)(F)F)c3)c2cc1-c1ccc(C(=O)N(C)C)nc1` [I-189], the pIC50 was 7.64.

With `Cc1nc(N[C@H](C)c2cccc(C(F)(F)F)c2)c2cc(C3(O)CCN(C(=O)N(C)C)CC3)ccc2n1` [I-50], the pIC50 is 7.64.

As to `Cc1nc(N[C@H](C)c2cccc(C(F)(F)F)c2)c2cc(C3(O)CCS(=O)(=O)CC3)ccc2n1` [I-21], the pIC50 is 7.70.

Regarding `COc1cc2nc(C)nc(N[C@H](C)c3cc(N)cc(C(F)(F)F)c3)c2cc1O[C@H]1CCN(C(C)=O)C1` [I-7], the pIC50 is 8.52.

`Cc1nc(N[C@H](C)c2cc(N)cc(C(F)(F)F)c2)c2cc(O[C@H]3CCOC3)c(C)cc2n1` [I-10]: the negative-log IC50 (pIC50) is 8.15.

Take `COc1cc2nc(C)nc(N[C@H](C)c3cccc(C(F)(F)F)c3)c2cc1-c1ccc(C(=O)N(C)C)cn1` [I-191]: the pIC50 was 7.46.

`COCC(=O)N1CCC(O)(c2ccc3nc(C)nc(N[C@H](C)c4cccc(C(F)(F)F)c4)c3c2)CC1` [I-49]: the pIC50 was 8.05.

For the molecule `COc1cc2nc(C)nc(N[C@H](C)c3cccc(C4(O)COC4)c3)c2cc1C1=CCN(C(C)=O)CC1` [I-17], the pIC50 was 7.47.

As for `COc1c(C2(O)CCN(C(C)=O)CC2)cc2c(N[C@H](C)c3cccc(C(F)(F)F)c3F)nc(C)nc2c1C` [I-20], the negative-log IC50 (pIC50) was 8.15.

For the molecule `COc1cc2nc(C)nc(N[C@H](C)c3cccc(C)c3)c2cc1-c1ccc(C(=O)N(C)C)nc1` [I-190], the pIC50 is 7.47.

Regarding `COc1cc2nc(C)nc(N[C@H](C)c3cccc(C(F)(F)F)c3F)c2cc1C1(O)CCN(C(C)=O)CC1` [I-45], the pIC50 was 8.70.

Take `Cc1nc(N[C@H](C)c2cc(N)cc(C(F)(F)F)c2)c2cc(O[C@H]3CCN(C(=O)C4CC4)C3)c(C)cc2n1` [I-54]: the pIC50 was 8.40.

For the molecule `CC(=O)O[C@H]1CC[C@](O)(c2ccc3nc(C)nc(N[C@H](C)c4cccc(C(F)(F)F)c4)c3c2)CC1` [I-67], the pIC50 is 7.59.

Still in this assay, the particulars now being: read-out: IC50 (SOS1).
In the case of `Cc1nc(N[C@H](C)c2cc(N)cc(C(F)(F)F)c2)c2cc(-c3ccn(C)c(=O)c3)c(C)cc2n1` [I-348], the pIC50 was 8.15.

Turning to `COc1cc2nc(C)nc(N[C@H](C)c3cc(N)cc(C(F)(F)F)c3)c2cc1-c1ccc(=O)n(C)c1` [I-108], the pIC50 was 8.10.

For `COc1cc2nc(C)nc(N[C@H](C)c3cc(N)cc(C(F)(F)F)c3)c2cc1-c1cnn(CC(=O)N(C)C)c1` [I-84], the pIC50 was 8.22.

As to `COc1cc2nc(C)nc(N[C@H](C)c3cc(N)cc(C(F)(F)F)c3F)c2cc1C1CCN(C(C)=O)CC1` [I-278], the negative-log IC50 (pIC50) is 8.70.

For `COc1cc2nc(C)nc(N[C@H](C)c3cc(N)cc(C(F)(F)F)c3)c2cc1[C@H]1CC[C@H](C(=O)N2CCOCC2)CC1` [I-359], the pIC50 was 8.70.

Take `CC(=O)N1CCC(c2cc(C)c3nc(C)nc(N[C@H](C)c4cccc(C)c4)c3c2)CC1` [I-269]: the pIC50 is 7.62.

Regarding `COCC(=O)N1CCC(c2cc3c(N[C@H](C)c4cccc(C)c4)nc(C)nc3cc2C)CC1` [I-272], the pIC50 is 7.47.

Take `COc1cc2nc(C)nc(N[C@H](C)c3cc(N)cc(C(F)(F)F)c3)c2cc1[C@H]1CC[C@@H](C(=O)N(C)C)CC1` [I-356]: the pIC50 was 7.47.

As to `Cc1nc(N[C@H](C)c2cc(N)cc(C(F)(F)F)c2)c2cc([C@H]3CC[C@H](C(=O)N(C)C)CC3)cc(C)c2n1` [I-363], the pIC50 was 8.40.

On to `Cc1nc(N[C@H](C)c2cc(N)cc(C(F)(F)F)c2)c2cc([C@H]3CC[C@@H](C(=O)N(C)C)CC3)ccc2n1` [I-299], for which the pIC50 is 8.00.

As for `Cc1nc(N[C@H](C)c2cc(N)cc(C(F)(F)F)c2)c2cc([C@H]3CC[C@@H](C(=O)N(C)[C@H]4CCOC4)CC3)ccc2n1` [I-251], the pIC50 was 8.00.

For `COc1cc2nc(C)nc(N[C@H](C)c3cc(N)cc(C(F)(F)F)c3F)c2cc1-c1ccc(=O)n(C)c1` [I-110], the pIC50 was 8.10.

On to `Cc1nc(N[C@H](C)c2cc(N)cc(C(F)(F)F)c2)c2cc(-c3cnn(CC(=O)N(C)C)c3)ccc2n1` [I-86], for which the pIC50 was 8.10.

In the case of `COc1cc2nc(C)nc(N[C@H](C)c3cccc(C)c3)c2cc1C1CCN(C(C)=O)CC1` [I-281], the pIC50 was 7.92.

Turning to `Cc1nc(N[C@H](C)c2cc(N)cc(C(F)(F)F)c2C)c2cc(C3CCS(=O)(=O)CC3)ccc2n1` [I-317], the pIC50 is 8.40.

Take `Cc1nc(N[C@H](C)c2cc(N)cc(C(F)(F)F)c2)c2cc([C@H]3CC[C@@H](C(=O)N(C)C[C@H](C)O)CC3)ccc2n1` [I-255]: the pIC50 was 8.10.

For the molecule `COc1cc2nc(C)nc(N[C@H](C)c3cccc(C(F)(F)F)c3)c2cc1-c1ccc(C(=O)N2CCOCC2)cc1` [I-215], the pIC50 is 7.43.

Turning to `Cc1nc(N[C@H](C)c2cc(N)cc(C(F)(F)F)c2)c2cc(C3=CCS(=O)(=O)CC3)cc(C)c2n1` [I-364], the pIC50 was 7.96.

`COc1cc2nc(C)nc(N[C@H](C)c3cccc(C)c3)c2cc1C1CCS(=O)(=O)CC1` [I-312]: the pIC50 was 7.74.

For `COc1cc2nc(C)nc(N[C@H](C)c3cccc(C(F)(F)F)c3)c2cc1C1CCN(C(C)=O)CC1` [I-308], the pIC50 is 8.05.

For `COCC(=O)N1CCC(c2cc3c(N[C@H](C)c4cc(N)cc(C(F)(F)F)c4F)nc(C)nc3cc2OC)CC1` [I-307], the pIC50 was 8.52.

`Cc1nc(N[C@H](C)c2cc(N)cc(C(F)(F)F)c2F)c2cc(C3CCS(=O)(=O)CC3)ccc2n1` [I-310]: the negative-log IC50 (pIC50) is 8.15.

Regarding `Cc1nc(N[C@H](C)c2cc(N)cc(C(F)(F)F)c2)c2cc(C3CCS(=O)(=O)CC3)c(F)cc2n1` [I-320], the pIC50 was 8.40.

For `Cc1nc(N[C@H](C)c2cc(N)cc(C(F)(F)F)c2)c2cc([C@H]3CC[C@@H](C(=O)N4CCN(C)CC4)CC3)cc(C)c2n1` [I-362], the pIC50 is 8.10.

For the molecule `Cc1nc(N[C@H](C)c2cc(N)cc(C(F)(F)F)c2)c2cc([C@H]3CC[C@H](C(=O)N(C)CC(C)(C)O)CC3)ccc2n1` [I-258], the pIC50 was 8.52.

`COc1cc2nc(C)nc(N[C@H](C)c3cccc(C(F)(F)CO)c3)c2cc1C1=CCN(C(C)=O)CC1` [I-287]: the negative logarithm of the IC50 (pIC50) is 8.70.

As to `CONC(=O)CC(C)c1cc2c(N[C@H](C)c3cccc(C(F)(F)F)c3)nc(C)nc2cc1C` (some centres unmarked) [I-378], the pIC50 is 8.10.

On to `Cc1nc(N[C@H](C)c2cccc(C(F)(F)F)c2)c2cc(C(C)CC(=O)NCC(F)(F)F)c(C)cc2n1` (some centres unmarked) [I-380], for which the negative-log IC50 (pIC50) is 7.38.

For `COCCN1CCN(C(=O)[C@H]2CC[C@H](c3ccc4nc(C)nc(N[C@H](C)c5cc(N)cc(C(F)(F)F)c5)c4c3)CC2)CC1` [I-240], the pIC50 was 8.70.

On to `COCC(=O)N1CCC(c2cc(C)c3nc(C)nc(N[C@H](C)c4cccc(C)c4)c3c2)CC1` [I-270], for which the pIC50 was 7.68.

`Cc1cccc([C@@H](C)Nc2nc(C)nc3ccc([C@H]4CC[C@H](C(=O)N5CC(C#N)C5)CC4)cc23)c1` [I-265]: the pIC50 is 7.44.

Consider `CNC(=O)CC(C)c1cc2c(N[C@H](C)c3cccc(C(F)(F)F)c3)nc(C)nc2cc1C` (some centres unmarked) [I-377], for which the pIC50 was 8.00.

Consider `COCCN1CCN(C(=O)[C@H]2CC[C@H](c3cc4c(N[C@H](C)c5cc(N)cc(C(F)(F)F)c5F)nc(C)nc4cc3OC)CC2)CC1` [I-246], for which the pIC50 is 8.70.

The same assay, now with this note: values marked with * in the table; read-out: IC50 (SOS1).
`Cc1cccc([C@@H](C)Nc2nc(C)nc3ccc(C4CCS(=N)(=O)CC4)cc23)c1` (some centres unmarked) [I-330]: the pIC50 was 7.70.

For `Cc1cccc([C@@H](C)Nc2nc(C)nc3ccc(-c4cc5n(n4)CCC(=O)N5)cc23)c1` [I-87], the pIC50 is 7.74.

Consider `COCC(=O)N1CCC(c2ccc3nc(C)nc(N[C@H](C)c4cccc(C)c4)c3c2)CC1` [I-277], for which the pIC50 was 7.66.

As to `Cc1nc(N[C@H](C)c2cccc(C(F)(F)F)c2)c2cc(-c3ccc(=O)n(CC(=O)N(C)C)c3)ccc2n1` [I-333], the pIC50 is 7.59.

For the molecule `Cc1cccc([C@@H](C)Nc2nc(C)nc3ccc(-c4ccn(CC(=O)O)c(=O)c4)cc23)c1` [I-342], the pIC50 was 7.32.

In the case of `Cc1cccc([C@@H](C)Nc2nc(C)nc3cc(C)c(-c4ccc(=O)n(C)c4)cc23)c1` [I-105], the pIC50 was 7.44.
